Source: paper PMC9867380, “Ageing Curtails the Diversity and Functionality of Nascent CD8^+ T Cell Responses against SARS-CoV-2” (Vaccines, 2023)
Read-outs that look alike come from different tables or passages of the source.

Tests used:
[1] = test system: primed CD8^+ T cells (PBMCs from HLA-A2 donors); format: cell-based, human
HLA-A2 = target: T1, HLA-A2 (Homo sapiens, UniProt P04439, D140Y/D185E/D98H/E176V/E277Q/G131W/G231S/I119V/I121R/I166T/I218V/L300P/L318F/N151K/N90K/P208A/P217A/Q86G/Q94H/R138H/R169H/T345S); experiment: HLA–peptide binding assay (surface stabilization of HLA-A2 on T2 cells); details: differences especially at 10^−5 M and 10^−6 M
T1 construct: T2 cells, a lymphoma-derived line expressing low amounts of HLA-A2; endogenous in cells; host or cells: T2 cells

[2] = old donors (65–69 years, n = 8), peptide 1 μM, day 10 after priming, 24 h ELISpot, positive above 50 SFUs per 10^6 cells

Row | Sequence | IFN-γ responses in old donors [1] | IFN-γ responses in old donors [1, 2] | Relative affinity for HLA-A2 (binding hierarchy among the peptides) (HLA-A2)
1 | HLVDFQVTI [HLA-A2-restricted SARS-CoV-2 peptide from ORF6, residues 3–11] | limited to a single donor | – | –
2 | KIADYNYKL [HLA-A2-restricted SARS-CoV-2 spike-derived peptide, residues 417–425] | – | no responses | –
3 | MLDMYSVML [HLA-A2-restricted SARS-CoV-2 peptide from RdRpol, residues 5291–5299] | – | limited to a single donor | –
4 | SLVKPSFYV [HLA-A2-restricted SARS-CoV-2 peptide from protein E, residues 50–58] | – | limited to a single donor | –
5 | TLDSKTQSL [HLA-A2-restricted SARS-CoV-2 spike-derived peptide, residues 109–117] | – | no responses | lowest relative affinities
6 | LLYDANYFL [HLA-A2-restricted SARS-CoV-2 peptide from ORF3a, residues 139–147] | – | limited to a single donor | –
7 | YLQPRTFLL [HLA-A2-restricted SARS-CoV-2 spike-derived peptide, residues 269–277] | – | – | lowest relative affinities
